Measured values published in ChEMBL document CHEMBL5661943, “ASAP - In vitro antiviral effect” (2024).

Legend:
[1] = test system: Zika virus; assay: EC50 is reported via analysis of immunofluorescence staining. The assay has been performed by Icahn School of Medicine at Mount Sinai.; format: functional, organism-based, Chlorocebus sabaeus, VeroE6/TMPRSS2; conditions: Zika virus; for EC90: P-gp concentration 2 uM, P-gp inhibitor Elacidar
[2] = test system: dengue virus type 2; assay: Functional immunofluorescence assay to measure dose dependent changes in antiviral-drug inhibitory efficacy against Dengue virus type 2 Thailand/16681/84 in Vero E6/TMPRSS2 cells (cotreated with P-gp inhibitor, Elacridar). Cells are treated with antiviral candidates that are serially diluted, following infection, cells are fixed. EC50 is reported via analysis of immunofluorescence staining. The assay has been performed by Icahn School of Medicine at Mount Sinai.; format: organism-based, Chlorocebus sabaeus, VeroE6/TMPRSS2; conditions: Dengue virus

Row | Structure (SMILES) | EC50 ([1]; VeroE6/TMPRSS2) [µM] | EC50 ([2]; VeroE6/TMPRSS2) [µM] | other results
1 | NCc1cccc([C@@H]2C[C@H]2c2cc(Cl)cc(NC(=O)OCc3ccccc3)c2)c1 | > 5.56 | > 5.56 | EC90 ([1]; VeroE6/TMPRSS2, Maximum measured 125.497 %, Minimum measured 83.326 %): > 5.56 µM; EC90 ([2]; VeroE6/TMPRSS2, Maximum measured 134.824 %, Minimum measured 97.991 %, P-gp concentration 2 uM, P-gp inhibitor Elacidar): > 5.56 µM
2 | N#C[C@H](Nc1cccc(-c2nn[nH]n2)c1)c1cc(Cl)cc(NC(=O)OCc2ccccc2)c1 | > 50 | > 50 | EC90 ([1]; VeroE6/TMPRSS2, Maximum measured 138.49 %, Minimum measured 54.48 %): > 50 µM; EC90 ([2]; VeroE6/TMPRSS2, Baseline response 0 %, Hill slope -0.37, Maximum measured 135.235 %, Maximum response 100 %, Minimum measured 60.402 %, P-gp concentration 2 uM, R squared 0.119, P-gp inhibitor Elacidar): > 50 µM
3 | CC[C@H](Cc1nnn[nH]1)c1ccc(NC(=O)c2cc(Cl)cc(-n3cccc3)c2)cc1 | 46.8 | 42.5 | EC90 ([1]; VeroE6/TMPRSS2, Baseline response 0 %, Hill slope -17.276, Maximum measured 183.537 %, Maximum response 154.104 %, Minimum measured 37.545 %, R squared 0.817): > 50 µM; EC90 ([2]; VeroE6/TMPRSS2, Baseline response 0 %, Hill slope -23.366, Maximum measured 115.315 %, Maximum response 100 %, Minimum measured 2.218 %, P-gp concentration 2 uM, R squared 0.505, P-gp inhibitor Elacidar): 46.7 µM
4 | O=S(=O)(Nc1cccc(-c2nnn[nH]2)c1)c1cc(Cl)cc(-c2ccccc2)c1 | > 50 | 0.611 | EC90 ([1]; VeroE6/TMPRSS2, Maximum measured 155.311 %, Minimum measured 93.761 %): > 50 µM; EC90 ([2]; VeroE6/TMPRSS2, Baseline response 0 %, Hill slope -0.304, Maximum measured 103.918 %, Maximum response 100 %, Minimum measured 7.141 %, P-gp concentration 2 uM, R squared 0.457, P-gp inhibitor Elacidar): > 50 µM
5 | C[C@@H](N)c1cccc(NC(=O)[C@H]2[C@H]3CCCCC[C@H]3[C@H]2NC(=O)OCc2ccccc2)c1 | > 5.56 | > 5.56 | EC90 ([1]; VeroE6/TMPRSS2, Maximum measured 138.527 %, Minimum measured 84.272 %): > 5.56 µM; EC90 ([2]; VeroE6/TMPRSS2, Baseline response 0 %, Hill slope -0.267, Maximum measured 104.495 %, Maximum response 100 %, Minimum measured 46.505 %, P-gp concentration 2 uM, R squared 0.299, P-gp inhibitor Elacidar): > 5.56 µM
6 | CCOc1cccc(-c2ccc(S(=O)(=O)Nc3cc4c(cc3C(=O)O)CCC4)cc2)c1 | > 50 | > 16.7 | EC90 ([1]; VeroE6/TMPRSS2, Baseline response 0 %, Hill slope -16.078, Maximum measured 130.08 %, Maximum response 100 %, Minimum measured 52.734 %, R squared 0.304): > 50 µM; EC90 ([2]; VeroE6/TMPRSS2, Baseline response 0 %, Hill slope -0.37, Maximum measured 131.408 %, Maximum response 100 %, Minimum measured 56.89 %, P-gp concentration 2 uM, R squared 0.244, P-gp inhibitor Elacidar): > 16.7 µM
7 | O=C(Nc1cc(Cl)cc(C(=O)Nc2cccc([C@H]3CCNC3)c2)c1)OCc1ccccc1 | 42.7 | > 5.56 | EC90 ([1]; VeroE6/TMPRSS2, Baseline response 0 %, Hill slope -21.619, Maximum measured 167.541 %, Maximum response 100 %, Minimum measured 3.263 %, R squared 0.234): 47.3 µM; EC90 ([2]; VeroE6/TMPRSS2, Maximum measured 260.488 %, Minimum measured 106.051 %, P-gp concentration 2 uM, P-gp inhibitor Elacidar): > 5.56 µM
8 | CCOC(=O)Nc1cc(Cl)cc(C(=O)Nc2cccc(CN)c2)c1 | > 50 | > 16.7 | EC90 ([1]; VeroE6/TMPRSS2, Maximum measured 144.074 %, Minimum measured 100.96 %): > 50 µM; EC90 ([2]; VeroE6/TMPRSS2, Maximum measured 179.291 %, Minimum measured 97.679 %, P-gp concentration 2 uM, P-gp inhibitor Elacidar): > 16.7 µM
9 | O=C(Nc1cc(Cl)cc(S(=O)(=O)Nc2cccc(-c3nn[nH]n3)c2)c1)OCc1ccccc1 | > 16.7 | > 50 | EC90 ([1]; VeroE6/TMPRSS2, Maximum measured 147.808 %, Minimum measured 131.825 %): > 16.7 µM; EC90 ([2]; VeroE6/TMPRSS2, Maximum measured 125.288 %, Minimum measured 43.28 %, P-gp concentration 2 uM, P-gp inhibitor Elacidar): > 50 µM
10 | NCc1ccc(F)c(NC(=O)c2cc(Cl)cc(NC(=O)OCc3ccccc3)c2)c1 | > 5.56 | > 5.56 | EC90 ([1]; VeroE6/TMPRSS2, Maximum measured 191.718 %, Minimum measured 113.213 %): > 5.56 µM; EC90 ([2]; VeroE6/TMPRSS2, Maximum measured 158.385 %, Minimum measured 97.578 %, P-gp concentration 2 uM, P-gp inhibitor Elacidar): > 5.56 µM
11 | O=C(O)CCc1ccc(NC(=O)c2cc(Cl)cc(NC(=O)OCc3ccccc3)c2)cc1 | > 50 | 23.4 | EC90 ([1]; VeroE6/TMPRSS2, Maximum measured 138.099 %, Minimum measured 61.86 %): > 50 µM; EC90 ([2]; VeroE6/TMPRSS2): 44.4 µM
12 | O=C(Nc1cc(Cl)cc(C(=O)Nc2cc(Br)cc(-c3nnn[nH]3)c2)c1)OCc1ccccc1 | 41.4 | 11.4 | EC90 ([1]; VeroE6/TMPRSS2, Baseline response 0 %, Hill slope -35.305, Maximum measured 180.813 %, Maximum response 100 %, Minimum measured 13.985 %, R squared 0.137): 44.1 µM; EC90 ([2]; VeroE6/TMPRSS2, Baseline response 0 %, Hill slope -3.68, Maximum measured 234.045 %, Maximum response 186.52 %, Minimum measured 36.837 %, P-gp concentration 2 uM, R squared 0.67, P-gp inhibitor Elacidar): > 16.7 µM
13 | C=CC[C@H](Nc1cc(Cl)cc(NC(=O)OCc2ccccc2)c1)c1cccc(-c2nn[nH]n2)c1 | 14.2 | 0.449 | EC90 ([1]; VeroE6/TMPRSS2, Baseline response 0 %, Hill slope -24.201, Maximum measured 231.442 %, Maximum response 100 %, Minimum measured 2.044 %, R squared 0.135): 15.6 µM; EC90 ([2]; VeroE6/TMPRSS2): 4.92 µM
14 | CC[C@H](Cc1nn[nH]n1)c1ccc(N[C@H](C(=O)NC)c2cc(Cl)cc(NC(=O)OCc3ccccc3)c2)cc1 | > 50 | > 50 | EC90 ([1]; VeroE6/TMPRSS2, Maximum measured 168.95 %, Minimum measured 107.074 %): > 50 µM; EC90 ([2]; VeroE6/TMPRSS2, Baseline response 0 %, Hill slope -0.218, Maximum measured 117.472 %, Maximum response 100 %, Minimum measured 37.097 %, P-gp concentration 2 uM, R squared 0.193, P-gp inhibitor Elacidar): > 50 µM
15 | CNC(=O)[C@H](Nc1cc(Cl)cc(NC(=O)OCc2ccccc2)c1)c1cccc(-c2nn[nH]n2)c1 | > 50 | > 50 | EC90 ([1]; VeroE6/TMPRSS2, Maximum measured 214.272 %, Minimum measured 122.906 %): > 50 µM; EC90 ([2]; VeroE6/TMPRSS2, Baseline response 0 %, Hill slope -0.094, Maximum measured 132.889 %, Maximum response 100 %, Minimum measured 51.11 %, P-gp concentration 2 uM, R squared 0.041, P-gp inhibitor Elacidar): > 50 µM
16 | CC[C@H](Cc1nnn[nH]1)c1ccc(NC(=O)[C@H]2[C@H]3CCCCC[C@H]3[C@H]2NC(=O)OCc2ccccc2)cc1 | > 50 | 16.1 | EC90 ([1]; VeroE6/TMPRSS2, Baseline response 0 %, Hill slope -0.151, Maximum measured 102.715 %, Maximum response 100 %, Minimum measured 55.5 %, R squared 0.202): > 50 µM; EC90 ([2]; VeroE6/TMPRSS2): 44.8 µM
17 | CC(=O)Nc1cc(Cl)cc(C(=O)Nc2cccc(CN)c2)c1 | > 50 | > 16.7 | EC90 ([1]; VeroE6/TMPRSS2, Baseline response 0 %, Hill slope 0.296, Maximum measured 131.154 %, Maximum response 100 %, Minimum measured 80.704 %, R squared 0.041): > 50 µM; EC90 ([2]; VeroE6/TMPRSS2, Maximum measured 143.919 %, Minimum measured 91.997 %, P-gp concentration 2 uM, P-gp inhibitor Elacidar): > 16.7 µM
18 | O=C(Nc1cc(Cl)cc(C(=O)Nc2cc(-c3nnn[nH]3)ccc2F)c1)OCc1ccccc1 | > 16.7 | > 50 | EC90 ([1]; VeroE6/TMPRSS2, Maximum measured 136.099 %, Minimum measured 71.047 %): > 16.7 µM; EC90 ([2]; VeroE6/TMPRSS2, Baseline response 0 %, Hill slope -0.699, Maximum measured 181.18 %, Maximum response 100 %, Minimum measured 75.606 %, P-gp concentration 2 uM, R squared 0.051, P-gp inhibitor Elacidar): > 50 µM
19 | Cc1ccc(-c2nnn[nH]2)cc1NC(=O)c1cc(Cl)cc(NC(=O)OCc2ccccc2)c1 | > 16.7 | 40.5 | EC90 ([1]; VeroE6/TMPRSS2, Maximum measured 182.406 %, Minimum measured 123.883 %): > 16.7 µM; EC90 ([2]; VeroE6/TMPRSS2, Baseline response 0 %, Hill slope -16.355, Maximum measured 369.361 %, Maximum response 277.036 %, Minimum measured 8.558 %, P-gp concentration 2 uM, R squared 0.765, P-gp inhibitor Elacidar): 46.3 µM
20 | CCCC(=O)Nc1cc(Cl)cc(C(=O)Nc2cccc(CN)c2)c1 | > 16.7 | > 50 | EC90 ([1]; VeroE6/TMPRSS2, Baseline response 0 %, Hill slope -0.382, Maximum measured 108.39 %, Maximum response 100 %, Minimum measured 82.052 %, R squared 0.052): > 16.7 µM; EC90 ([2]; VeroE6/TMPRSS2, Maximum measured 163.615 %, Minimum measured 116.069 %, P-gp concentration 2 uM, P-gp inhibitor Elacidar): > 50 µM
21 | O=C(Nc1cc(Cl)cc(C(=O)Nc2ccc3c(c2)CNCCO3)c1)OCc1ccccc1 | 5.26 | 0.669 | EC90 ([1]; VeroE6/TMPRSS2, Baseline response 0 %, Hill slope -16.118, Maximum measured 155.613 %, Maximum response 100 %, Minimum measured 29.546 %, R squared 0.374): > 5.56 µM; EC90 ([2]; VeroE6/TMPRSS2, Baseline response 0 %, Hill slope -1.036, Maximum measured 111.022 %, Maximum response 100 %, Minimum measured 5.282 %, P-gp concentration 2 uM, R squared 0.817, P-gp inhibitor Elacidar): > 5.56 µM
22 | CC[C@H](Cc1nnn[nH]1)c1ccc(NC(=O)c2cc(Cl)cc(C3CC3)c2)cc1 | > 50 | > 16.7 | EC90 ([1]; VeroE6/TMPRSS2, Maximum measured 167.989 %, Minimum measured 95.132 %): > 50 µM; EC90 ([2]; VeroE6/TMPRSS2, Maximum measured 194.23 %, Minimum measured 94.649 %, P-gp concentration 2 uM, P-gp inhibitor Elacidar): > 16.7 µM
